Reference: US10201532B2, “Compounds and their use” (ALLECRA THERAPEUTICS GMBH, priority 2010, dated 2019)

Tests used:
[1] = tested on: KPC-2 producing K. pneumoniae (ATCC BAA-1705); assay: Synergistic broth micro-dilution MIC (checkerboard); assay type: cell-based, Klebsiella pneumoniae; conditions: for MIC of Cefepime in combination with BLI / MIC of Cefotaxime in combination with BLI / MIC of Ceftazidime in combination with BLI / MIC of Ceftobiprole in combination with BLI / MIC of Imipenem in combination with BLI / MIC of Meropenem in combination with BLI / MIC of Aztreonam in combination with BLI / MIC of Ertapenem in combination with BLI / MIC of Faropenem in combination with BLI: ATCC BAA-1705
[2] = biological target: T1, crude KPC-2 enzyme extract (Klebsiella pneumoniae, UniProt Q9F663); assay: β-Lactamase inhibitory assay with CENTA substrate; assay type: biochemical
T1 construct: enzyme extracts from KPC-2 producing and KPC-3 expressing bacterial gram negative strains were used; endogenous in cells; host or cells: KPC-2 producing gram-negative strain
Text: (§1) The Compound-1 was subjected to β-lactamase inhibitory assay to determine IC50 and to compare that with the comparator BLI agents as described elsewhere (Bebrone et. al., Antimicrob. Agents. Chemother, 2001, 45(6): 1868-1871; Jamieson et. al, Antimicrob. Agents. Chemother, 2003, 47(5): 1652-1657). Briefly, enzyme extracts from KPC-2 producing and KPC-3 expressing bacterial gram negative strains were used to study the β-lactamase inhibitory activity and determination of IC50 using CENTA as the substrate for β-lactamase.

[3] = biological target: crude KPC-3 enzyme extract (UniProt Q9F663, H272Y, species not given); assay: β-Lactamase inhibitory assay with CENTA substrate; assay type: biochemical; conditions: also headed KPC2
Text: as §1

[4] = tested on: KPC-3 expressing E. coli (J53 R6206); assay: Synergistic broth micro-dilution MIC (checkerboard); assay type: cell-based, Escherichia coli

T1 sequence (Q9F663 25-293 limits assumed): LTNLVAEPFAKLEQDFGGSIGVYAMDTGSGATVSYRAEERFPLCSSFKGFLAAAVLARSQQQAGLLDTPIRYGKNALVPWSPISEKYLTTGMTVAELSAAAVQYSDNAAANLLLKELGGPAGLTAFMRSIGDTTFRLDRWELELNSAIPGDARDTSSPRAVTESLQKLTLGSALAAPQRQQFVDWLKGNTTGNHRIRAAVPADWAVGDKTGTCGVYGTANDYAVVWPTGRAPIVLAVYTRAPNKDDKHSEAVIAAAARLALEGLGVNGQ

CC1(C)[C@H](C(=O)O)N2C(=O)C[C@H]2S1(=O)=O [Sulbactam]
235 µM: IC50 [3]
1 µg/mL: MIC of Meropenem in combination with BLI ([4]; BLI at 4 μg/mL) | MIC of Meropenem in combination with BLI ([4]; BLI at 8 μg/mL)
> 64 µg/mL: MIC ([1]; Klebsiella pneumoniae, ATCCBAA1705, read-out: MIC of BLI alone)
1400 µM: IC50 [2]
4 µg/mL: MIC of Imipenem in combination with BLI ([4]; BLI at 2 μg/mL)
64 µg/mL: MIC of Cefepime in combination with BLI ([1]; BLI at 8 μg/mL) | MIC of Cefotaxime in combination with BLI ([1]; BLI at 8 μg/mL) | MIC of Cefepime in combination with BLI ([1]; BLI at 16 μg/mL) | MIC of Cefepime in combination with BLI ([1]; BLI at 64 μg/mL) | MIC of Ceftazidime in combination with BLI ([1]; BLI at 64 μg/mL) | MIC of Ertapenem in combination with BLI ([1]; BLI at 64 μg/mL)
16 µg/mL: MIC of Imipenem in combination with BLI ([1]; BLI at 8 μg/mL) | MIC of Meropenem in combination with BLI ([1]; BLI at 64 μg/mL) | MIC of Cefepime in combination with BLI ([4]; BLI at 2 μg/mL) | MIC of Cefepime in combination with BLI ([4]; BLI at 4 μg/mL) | MIC of Cefotaxime in combination with BLI ([4]; BLI at 4 μg/mL) | MIC of Ceftobiprole in combination with BLI ([4]; BLI at 8 μg/mL)
8 µg/mL: MIC of Imipenem in combination with BLI ([1]; BLI at 16 μg/mL) | MIC of Imipenem in combination with BLI ([1]; BLI at 64 μg/mL) | MIC of Cefepime in combination with BLI ([4]; BLI at 8 μg/mL) | MIC of Cefotaxime in combination with BLI ([4]; BLI at 8 μg/mL)
>64 µg/mL: MIC of Cefepime in combination with BLI ([1]; BLI at 2 μg/mL) | MIC of Cefotaxime in combination with BLI ([1]; BLI at 2 μg/mL) | MIC of Ceftazidime in combination with BLI ([1]; BLI at 2 μg/mL) | MIC of Ceftobiprole in combination with BLI ([1]; BLI at 2 μg/mL) | MIC of Aztreonam in combination with BLI ([1]; BLI at 4 μg/mL) | MIC of Cefotaxime in combination with BLI ([1]; BLI at 4 μg/mL) | MIC of Ceftazidime in combination with BLI ([1]; BLI at 4 μg/mL) | MIC of Ceftobiprole in combination with BLI ([1]; BLI at 4 μg/mL) | MIC of Ertapenem in combination with BLI ([1]; BLI at 4 μg/mL) | MIC of Faropenem in combination with BLI ([1]; BLI at 4 μg/mL) | MIC of Ceftazidime in combination with BLI ([1]; BLI at 8 μg/mL) | MIC of Ceftobiprole in combination with BLI ([1]; BLI at 8 μg/mL) | MIC of Ertapenem in combination with BLI ([1]; BLI at 8 μg/mL) | MIC of Faropenem in combination with BLI ([1]; BLI at 8 μg/mL) | MIC of Aztreonam in combination with BLI ([1]; BLI at 16 μg/mL) | MIC of Ceftazidime in combination with BLI ([1]; BLI at 16 μg/mL) | MIC of Ceftobiprole in combination with BLI ([1]; BLI at 16 μg/mL) | MIC of Ertapenem in combination with BLI ([1]; BLI at 16 μg/mL) | MIC of Faropenem in combination with BLI ([1]; BLI at 16 μg/mL) | MIC of Aztreonam in combination with BLI ([1]; BLI at 64 μg/mL) | MIC of Ceftobiprole in combination with BLI ([1]; BLI at 64 μg/mL) | MIC of Faropenem in combination with BLI ([1]; BLI at 64 μg/mL)
>32 µg/mL: MIC of Cefotaxime in combination with BLI ([4]; BLI at 2 μg/mL)
> 8 µg/mL: MIC ([4]; Escherichia coli, read-out: MIC of BLI alone, BLI alone)
16 to 32 µg/mL: MIC of Imipenem in combination with BLI ([1]; BLI at 2 μg/mL) | MIC of Imipenem in combination with BLI ([1]; BLI at 4 μg/mL)
≥64 µg/mL: MIC of Cefepime in combination with BLI ([1]; BLI at 4 μg/mL)
32 µg/mL: MIC of Meropenem in combination with BLI ([1]; BLI at 2 μg/mL) | MIC of Meropenem in combination with BLI ([1]; BLI at 4 μg/mL) | MIC of Meropenem in combination with BLI ([1]; BLI at 8 μg/mL) | MIC of Cefotaxime in combination with BLI ([1]; BLI at 16 μg/mL) | MIC of Meropenem in combination with BLI ([1]; BLI at 16 μg/mL) | MIC of Cefotaxime in combination with BLI ([1]; BLI at 64 μg/mL) | MIC of Ceftazidime in combination with BLI ([4]; BLI at 2 μg/mL) | MIC of Ceftobiprole in combination with BLI ([4]; BLI at 2 μg/mL) | MIC of Ceftazidime in combination with BLI ([4]; BLI at 4 μg/mL) | MIC of Ceftobiprole in combination with BLI ([4]; BLI at 4 μg/mL) | MIC of Ceftazidime in combination with BLI ([4]; BLI at 8 μg/mL)
2 µg/mL: MIC of Meropenem in combination with BLI ([4]; BLI at 2 μg/mL) | MIC of Imipenem in combination with BLI ([4]; BLI at 4 μg/mL) | MIC of Imipenem in combination with BLI ([4]; BLI at 8 μg/mL)
